What was measured:
[1] = tested on: bacterial endotoxin induced exudative response; assay: Bacterial endotoxin induced exudative response in rabbits, anterior chamber fluorophotometry of FITC-dextran; assay type: in vivo, New Zealand albino rabbits; conditions: topical 4 mg/ml; for exudative response (result in words) / reduction in the exudative response: treated eye versus saline control eye; for exudative response (result in words): n=5; for Anterior Chamber Fluorophotometer Results, Mean: Mean of 5 rabbits; for Anterior Chamber Fluorophotometer Results, Mean / Anterior Chamber Fluorophotometer Results: treated right eye, FITC-dextran fluorescence 90 minutes after endotoxin; for Anterior Chamber Fluorophotometer Results: 50 μL drop at 0, 1, 2 and 3 hours; for reduction in the exudative response: n=5, p<0.03 (Wilcoxon signed rank test)
Experimental: Thirty New Zealand albino rabbits weighing between 2.5 and 3.0 kg were used for this study. The rabbits were treated in accordance with the guidelines of the Association for Research in Vision and Ophthalmology (ARVO). One eye of each animal was used for experimental purposes, the other serving as a control eye. Slit lamp and indirect funduscopic examination was performed on all eyes before and after euthanasia.
The rabbits were divided into six groups. Group 1 (n=5) received topical 4 mg/ml deoxycortisone acetate (Spectrum Chemical Corp). Group 2 (n=5) received topical 4 mg/ml 11 -deoxycorticosterone (Spectrum Chemical Corp). Group 3 (n=5) received topical 4 mg/ml 11-desoxycortisone (Spectrum Chemical Corp). Group 4 (n=5) received topical 4 mg/ml aldosterone (Farmabios, Italy). Group 5 (n=5) received topical 4 mg/ml deoxycorticosterone (Spectrum Chemical Corp). Group 6 (n=5) received topical fludrocortisone acetate (Farmabios, Italy).
The rabbits were anaesthetised with 1 ml of a mixture of ketamine hydrochloride (35 mg/kg, intramuscular) and xylazine hydrochloride (5 mg/kg, intramuscular). In all groups, drugs were applied topically to the right eye and saline was applied to the left eye four times (at time 0, 1, 2 and 3 hours). Drugs and saline were administered to the eye as a single 50 μL drop.
20 mg/ml dextran-isothiocyanate-fluorescein (FITC-dextran, Sigma) was prepared and a 20 mg/kg dose was injected into the marginal ear vein at time […].
Endotoxin (2.5 μg/kg) isolated from Salmonella typhimurium (Sigma) was injected into the same vein at the same time with the third drop occurring at time 2 hours.
The FITC-dextran concentration in the anterior chamber was determined using a prototype fluorophotometer (OcuMetrics, Mountain View, Calif.) 90 minutes after an endotoxin administration. This instrument has excitation wavelengths of approximately 410 to 490 nm, with emission wavelengths of approximately 520 to 630 nm. The fluorescence emitted by the FITC-dextran was determined in both left and right eyes.
Statistical analysis was performed, comparing the anterior chamber fluorescence measurements of the test and control eye of each animal. A paired Wilcoxon Signed Rank Test (StatXact) was used, with a one sided p-value.

[2] = tested on: VEGF receptor Flt-1; assay: FACS analysis of Flt-1 expression in choroidal endothelial cells; assay type: cell-based
Experimental: (§1) To show the capacity of a mineralocorticoid, specifically fludrocortisone, to down-regulate receptors involved in biochemical pathways associated with oedema and exudative retinopathies, an assay was conducted looking at the activity of VEGF receptors Flk-1 and Flt-1 in choroidal endothelial cells. Flk-1 is known to be involved in cell proliferation whilst Flt-1 is involved in cell permeability.
(§2) The expression of Flk-1 and Flt-1 was measured, using fluorescence activated cell sorting (FACS) analysis, in untreated cells, cells treated with phorbolmyristate acetate (PMA), cells treated with PMA and then with the glucocorticoid triamcinolone acetonide (TA) and cells treated with PMA and then with the mineralocorticoid fludrocortisone. PMA is a model for pro-inflammatory cytokines and TA is known to […] the glucocorticoid receptor
(§3) The expression of Flk-1 and Flt-1 was also investigated in untreated choroidal endothelial cells, choroidal endothelial cells treated with Tumour Necrosis Factor-α (TNF-α) and choroidal endothelial cells treated with the mineralocorticoid fludrocortisone. TNF-α is a pro-inflammatory cytokine.

[3] = tested on: VEGF receptor Flk-1; assay: FACS analysis of Flk-1 expression in choroidal endothelial cells; assay type: cell-based; conditions: Example 1, FIG. 1; choroidal endothelial cells treated with PMA, compared to control cells
Experimental: as §1, §2, §3

Compound	exudative response (result in words) [1]	Anterior Chamber Fluorophotometer Results, Mean [1]	Anterior Chamber Fluorophotometer Results ([1]; Rabbit 1)	Anterior Chamber Fluorophotometer Results ([1]; Rabbit 2)	Anterior Chamber Fluorophotometer Results ([1]; Rabbit 3)	Anterior Chamber Fluorophotometer Results ([1]; Rabbit 4)	Anterior Chamber Fluorophotometer Results ([1]; Rabbit 5)	reduction in the exudative response [1]	expression of Flt-1 ([2]; Example 1, FIG. 1, choroidal endothelial cells treated with PMA)	expression of Flk-1 [3]	expression of Flt-1 ([2]; Example 2, FIG. 2, choroidal endothelial cells, compared to untreated control cells)
C[C@]12CC[C@H]3[C@@H](CCC4=CC(=O)CC[C@@]43C)[C@@H]1CC[C@@H]2C(=O)CO [11 -deoxycorticosterone]	did not show a reduction in the exudative response	–	–	–	–	–	–	–	–	–	–
C[C@]12CCC(=O)C=C1CC[C@@H]1[C@@H]2CC[C@@]2(C)[C@H]1CC[C@]2(O)C(=O)CO [11-DC, 17α,21-dihydroxypregn-4-ene-3,20-dione]	–	331	696	578	141	147	92	37%	–	–	–
C[C@]12CCC(=O)C=C1CC[C@@H]1[C@@H]2[C@@H](O)C[C@]2(C=O)[C@@H](C(=O)CO)CC[C@@H]12 [AS, 11β-11,21-dihydroxy-3,20-dioxopregen-4-en-18-al]	very variable	248	243	75	125	540	256	–	–	–	–
CC(=O)OCC(=O)[C@H]1CC[C@H]2[C@@H]3CCC4=CC(=O)CC[C@]4(C)[C@H]3CC[C@]12C [DA, 21-hydroxypregn-4-ene-3,20-dione 21 acetate]	–	201	220	116	455	100	113	47%	–	–	–
C[C@]12CC[C@H]3[C@@H](CCC4=CC(=O)CC[C@@]43C)[C@@H]1CC[C@@H]2C(=O)CO [DS, 21-hydroxypregn-4-ene-3,20-dione]	–	174	340	245	59	86	140	37%	–	–	–
CC(=O)OCC(=O)[C@@]1(O)CC[C@H]2[C@@H]3CCC4=CC(=O)CC[C@]4(C)[C@@]3(F)[C@@H](O)C[C@@]21C [FA, fludrocortisone acetate]	–	166	27	86	261	445	10	34%	–	–	–
CCCCCCCCCCCCCC(=O)O[C@@H]1[C@@H](C)[C@@]2(O)[C@@H](C=C(CO)C[C@]3(O)C(=O)C(C)=C[C@@H]23)[C@@H]2C(C)(C)[C@]12OC(C)=O [PMA, phorbolmyristate acetate]	–	–	–	–	–	–	–	–	increased	increased	–
TNF-α	–	–	–	–	–	–	–	–	–	–	higher levels of Flt-1
